From patent US9426996B2, “Use of benzoxaboroles as volatile antimicrobial agents on meats, plants, or plant parts” (AgroFresh Inc., priority 2013, dated 2016)

How the values were obtained:
Botrytis cinerea [1] = experiment: white carnations with natural inoculum, fog or passive volatile treatment; assay type: in vivo; conditions: 8 days of shelf-life
Method: A similar test like the one described above is also performed on white carnations (treated with or without the commercial anti-ethylene compound silver thiosulfate; STS) with natural inoculum. Compound A is either dissolved in an aqueous 1,2-propylene glycol solution (3:1) and 5 mL of the solution volatilized using an ES-100-H SmartFog system (Reno, Nev.) through a ½″ side port that is sealed immediately after the application, or dissolved in acetone and applied to a 42.5 millimeter (mm) Whatman #1 filter disk (Cat. No. 1001-042), and placed on a watch glass after allowing the acetone to evaporate for 5 minutes. The flowers are incubated for 3 days at 21° C. After storage, the flowers are evaluated for an additional 8 days for disease severity based on the number of lesions present on flower petals and sepals.

Botrytis cinerea [2] = experiment: in vivo volatile assay on onion leaves; conditions: 10 mg/L, 21° C. for 3 days
Method: To test the effect of Compound A (FIG. 1) on vegetables, potato, onion and squash were obtained from a local store, and the surface sterilized with 0.825% sodium hypochlorite (NaOCl). A slice of potato or two leaves of onion were placed in a sterile Petri plate, while whole squash were placed in a sterile 10.8-cup SnapWare airtight container (Model #109842). Each slice of potato was inoculated with 20 μL of a 1×10^5 spores/mL Fusarium sambucinum suspension, while onions were inoculated with 20 μL of a 1×10^6 spores/mL Botrytis cinerea suspension. For inoculation of squash, a small core was removed, and a mycelial plug of Phytophthora capsici was inserted and capped with the core. Compound A was diluted in acetone, and added to a 42.5 mm Whatman #1 filter disk (Cat. No. 1001-042) attached to the inner side of the lid at a rate to achieve a final headspace concentration of 10 mg/L. The acetone was permitted to evaporate for 5 minutes before parafilm sealing the plates or closing the airtight containers. The vegetables were incubated at 21° C. for 3 days, and evaluated for mycelial growth, dry rot, and water-soaked appearance (mm diameter) with results summarized in Table 13.

Penicillium digitatum = experiment: in vivo sublimation bioassay on fruit, 10 mg/L (Example 22); conditions: Orange; 10 mg/L sublimed; three day treatment plus three days at 21° C.
Method: (§1) To assess the in vivo activity of volatile antimicrobial Compound A (FIG. 1) in fruit, a volatile bioassay is developed using apple, pear, orange, strawberry, grape and blueberry. Two apples, 2 oranges, 2 pears, 8 strawberries, 16 grapes or 30 blueberries (per replicate, in duplicate) are placed in a clamshell with the stem end facing up for all fruits except for strawberry (stem end facing downwards). A fresh wound is inoculated with 20 μL 1×10^6 per mL Penicillium expansum spore suspension (apple and pear), 20 μL 1×10^6 per mL Penicillium digitatum spore suspension (orange), and 20 μL (strawberry and grape) or 10 μL (blueberry) of 1×10^6 per mL Botrytis cinerea spore suspension. The clamshells are placed inside a 117 L Rubbermaid storage box (Cat #2244) with lids closed. Compound A, dissolved in acetone, is pipetted onto a cotton strip, where the acetone is allowed to evaporate for five minutes, and then introduced into the container by a sublimation device (copper tube heated to 200° C. with fan flow at 0.5 L/min) to achieve a final headspace concentration of 10 mg/L. The containers are then held for three days at 21° C. After treatment, fruits are held for an additional three days at 21° C., then evaluated for disease incidence (mm diameter of browning or water-soaked lesions) and pathogen sporulation (mm diameter) for apple, pear and orange, as well as Botrytis cinerea disease incidence (%) and severity (0 to 4) for strawberry, grape and blueberry, with results summarized in Table 21.

Botrytis cinerea [3] = experiment: as above; conditions: 10 mg/L sublimed, three day treatment plus three days at 21° C.
Method: as §1

Penicillium expansum = experiment: as above; conditions: 10 mg/L sublimed, three day treatment plus three days at 21° C.
Method: as §1

Botrytis cinerea [4] = experiment: in vivo strawberry assay, release from cellulose paper and Tyvek fabric; conditions: strawberries
Method: An in vivo assay is used to evaluate the ability of Compound A to volatilize from different materials and control fungal pathogens. Eight strawberries are placed in a clamshell with stem end facing downwards. […] The clamshells are then placed in a 10.8-cup SnapWare airtight container (Model #109842). Compound A is dissolved in acetone and then evenly sprayed onto cellulose paper and Tyvek® fabric at a rate of 200 milligrams per square meter (mg/m^2). The acetone is allowed to evaporate. Likewise Compound A is dissolved in propylene glycol and evenly sprayed onto cellulose paper and Tyvek® fabric. No evaporation is attempted in this case.
Pieces of material are cut to the appropriate dimensions to deliver a final headspace concentration of 0.4, 2, or 10 mg/L. The containers are close, and placed for three days at 21° C. After treatment, fruit are stored for an additional two days at 21° C. and then evaluated for incidence (%) and severity (0 to 4) of disease, with the results summarized in Table 23.

## OB1OCc2cc(F)ccc21 [Compound A]
Botrytis cinerea [1]; Petals, 0.04 mg/L, Non-STS, Fog
  Severity (Average Number of Lesions): 0.4
Botrytis cinerea [1]; Petals, 0.04 mg/L, Non-STS, Volatile
  Severity (Average Number of Lesions): 3.1
Botrytis cinerea [1]; Petals, 0.04 mg/L, STS, Fog
  Severity (Average Number of Lesions): 0.3
Botrytis cinerea [1]; Petals, 0.04 mg/L, STS, Volatile
  Severity (Average Number of Lesions): 0.5
Botrytis cinerea [1]; Petals, 0.2 mg/L, Non-STS, Fog
  Severity (Average Number of Lesions): 0
Botrytis cinerea [1]; Petals, 0.2 mg/L, Non-STS, Volatile
  Severity (Average Number of Lesions): 1.8
Botrytis cinerea [1]; Petals, 0.2 mg/L, STS, Fog
  Severity (Average Number of Lesions): 0
Botrytis cinerea [1]; Petals, 0.2 mg/L, STS, Volatile
  Severity (Average Number of Lesions): 0.1
Botrytis cinerea [1]; Petals, 1 mg/L, Non-STS, Fog
  Severity (Average Number of Lesions): 0
Botrytis cinerea [1]; Petals, 1 mg/L, Non-STS, Volatile
  Severity (Average Number of Lesions): 1.5
Botrytis cinerea [1]; Petals, 1 mg/L, STS, Fog
  Severity (Average Number of Lesions): 0
Botrytis cinerea [1]; Petals, 1 mg/L, STS, Volatile
  Severity (Average Number of Lesions): 0.1
Botrytis cinerea [1]; Sepals, 0.04 mg/L, Non-STS, Fog
  Severity (Average Number of Lesions): 0.3
Botrytis cinerea [1]; Sepals, 0.04 mg/L, Non-STS, Volatile
  Severity (Average Number of Lesions): 2.1
Botrytis cinerea [1]; Sepals, 0.04 mg/L, STS, Fog
  Severity (Average Number of Lesions): 0.6
Botrytis cinerea [1]; Sepals, 0.04 mg/L, STS, Volatile
  Severity (Average Number of Lesions): 1.1
Botrytis cinerea [1]; Sepals, 0.2 mg/L, Non-STS, Fog
  Severity (Average Number of Lesions): 0.04
Botrytis cinerea [1]; Sepals, 0.2 mg/L, Non-STS, Volatile
  Severity (Average Number of Lesions): 1.6
Botrytis cinerea [1]; Sepals, 0.2 mg/L, STS, Fog
  Severity (Average Number of Lesions): 0.1
Botrytis cinerea [1]; Sepals, 0.2 mg/L, STS, Volatile
  Severity (Average Number of Lesions): 0.3
Botrytis cinerea [1]; Sepals, 1 mg/L, Non-STS, Fog
  Severity (Average Number of Lesions): 0.04
Botrytis cinerea [1]; Sepals, 1 mg/L, Non-STS, Volatile
  Severity (Average Number of Lesions): 1
Botrytis cinerea [1]; Sepals, 1 mg/L, STS, Fog
  Severity (Average Number of Lesions): 0.04
Botrytis cinerea [1]; Sepals, 1 mg/L, STS, Volatile
  Severity (Average Number of Lesions): 0.2
Botrytis cinerea [2]
  Water soaked: 0 mm
Penicillium digitatum
  Sporulation (mm): 8.55 mm
  Water soaked lesion: 3.04 mm
Botrytis cinerea [3]; Blueberry
  Incidence (%): 5%
  Severity (0-4): 0.03
Botrytis cinerea [3]; Grape
  Incidence (%): 26.7%
  Severity (0-4): 0.1
Botrytis cinerea [3]; Strawberry
  Incidence (%): 18.8%
  Severity (0-4): 0.09
Penicillium expansum; Apple
  Browning (mm): 5.4 mm
  Sporulation (mm): 0 mm
Penicillium expansum; Pear
  Browning (mm): 2.7 mm
  Sporulation (mm): 0 mm
Botrytis cinerea [4]; 0.4 mg/L, Cellulose Paper
  Incidence (%): 37.5%
  Severity (0-4): 0.8
Botrytis cinerea [4]; 0.4 mg/L, Tyvek
  Incidence (%): 31.3%
  Severity (0-4): 0.5
Botrytis cinerea [4]; 2 mg/L, Cellulose Paper
  Incidence (%): 37.5%
  Severity (0-4): 0.7
Botrytis cinerea [4]; 2 mg/L, Tyvek
  Incidence (%): 6.3%
  Severity (0-4): 0.1
Botrytis cinerea [4]; 10 mg/L, Cellulose Paper
  Severity (0-4): 0.2
Botrytis cinerea [4]; 10 mg/L, Tyvek
  Incidence (%): 6.3%
  Severity (0-4): 0.3
